ChEMBL document CHEMBL1122424, “S-carbobenzoxyglutathione: a competitive inhibitor of mammalian glyoxalase II” (J Med Chem, 1983)
Calls of active or inactive are those of the source. The rule behind the calls is not given here.

Legend:
[1] = molecular target: Hydroxyacylglutathione hydrolase, mitochondrial (Rattus norvegicus, UniProt O35952); experiment: (§1) […] inhibitory activity against glyoxalase II in rat liver
[2] = molecular target: Lactoylglutathione lyase (Mus musculus) (UniProt Q9CPU0); experiment: […] inhibitory activity against glyoxalase I in mouse liver; no inhibition; assay type: functional
[3] = molecular target: Hydroxyacylglutathione hydrolase, mitochondrial (Rattus norvegicus) (UniProt O35952); experiment: as §1; assay type: functional; settings: concentration not given here
[4] = molecular target: T1, Lactoylglutathione lyase (Rattus norvegicus) (UniProt Q6P7Q4); experiment: […] inhibitory activity against glyoxalase I in rat liver; no inhibition; assay type: functional
T1 sequence (whole entry): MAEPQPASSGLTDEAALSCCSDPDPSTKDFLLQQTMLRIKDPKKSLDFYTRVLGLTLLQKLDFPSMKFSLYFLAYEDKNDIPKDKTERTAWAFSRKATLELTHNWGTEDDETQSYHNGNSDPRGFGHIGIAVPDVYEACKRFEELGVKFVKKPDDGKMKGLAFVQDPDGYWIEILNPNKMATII

[5] = molecular target: T1, Lactoylglutathione lyase (Rattus norvegicus); experiment: In vivo inhibitory activity against glyoxalase I in rat liver; assay type: functional; settings: concentration not given here
[6] = test system: Lactoylglutathione lyase (Ovis aries); experiment: […] inhibitory activity against glyoxalase I in sheep liver; no inhibition

Chain of Lactoylglutathione lyase (Mus musculus) (Q9CPU0 2-184 limits assumed): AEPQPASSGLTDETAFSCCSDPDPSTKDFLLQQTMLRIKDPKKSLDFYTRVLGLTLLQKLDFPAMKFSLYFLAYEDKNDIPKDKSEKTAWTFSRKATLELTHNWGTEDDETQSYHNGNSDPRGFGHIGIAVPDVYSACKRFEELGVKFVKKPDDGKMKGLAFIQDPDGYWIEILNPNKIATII

N[C@@H](CCC(=O)N[C@@H](CSC(=O)OCc1ccccc1)C(=O)NCC(=O)O)C(=O)O
Ki [1]: 65 µM
Activity [2]: inactive
inhibition [3]: > 50%
Activity [4]: inactive
inhibition [5]: < 10%
Activity [6]: inactive
